# According to patent publication US20030032655A1, “Heme oxygenase-1 inducers or induction enhancers” (priority 2000, published 2003):
# How the values were obtained:
# [1] = test system: delayed cerebral vasospasm
# Method: The same model as in Example 1 was used to study changes over time in basilar artery diameter. The determination of basilar artery diameter was performed as described in the above-mentioned reference. That is, the diameter was measured angiographically on days 1 to 7 and expressed as a % change from the original diameter (% change before treatment was set to 0).
# All data were expressed as mean±SEM.
# The data was statistically processed such that intragroup comparison was performed by paired t-test and intergroup comparison was performed according to variance analysis.
# HO-1 mRNA = settings: blood i.c. + compound i.v. 1 mg/kg/min continuously for 2 days; basilar arterial walls, day 2; vs blood i.c.+saline i.v.
# Method: The preparation of rat cerebral vasospasm model and the determination of HO-1 mRNA expression level were performed according to a documented method (see The Journal of Clinical Investigation, Vol. 104, No. 1, July 1999).
# Each single hemorrhage model was injected with 0.5 ml autologous arterial blood into its cisterna magna. […] After administration, the level of mRNA expressed in basilar arterial walls was determined on day 2 using a quantitative RT-PCR technique.
# It is for this reason that the mRNA expression level was determined on day 2.
# All data were expressed as mean±SEM. The expression level of HO-2 was used as a denominator in calculating the ratio because the expression level of HO-2 was not assumed to change appreciably in this model and therefore, when used as a denominator, would enable changes in HO-1 expression level to be objectively evaluated while ignoring individual differences. […] The data were statistically processed according to variance analysis. A single asterisk (*) denotes a statistically significant difference from “saline i.c.” at p<0.05 level and two asterisks (**) denote a statistically significant difference from “blood i.c.+saline i.v.” at p<0.01 level.
# HO-1 protein = settings: after injection of autologous arterial blood; compound i.v. 2 days; basilar arterial walls, day 2
# Text: The same animal model as in Example 1 was used to study changes in HO-1 protein expression level after the same treatment as shown in Example 1. The changes in protein expression level were detected by Coomassie staining and Western blotting, as described in the abovementioned reference. In this figure, the upper and lower panels show the results of Coomassie staining and Western blotting, respectively. Each of the lanes shown in FIG. 2 has the same definition as the corresponding sample in FIG. 1.
smiles,measurement,setting,value
"CC(CNC(=O)c1cccnc1)NC(=O)c1cccnc1 (stereo not shown) [1,2-bis(nicotinamide)propane]",delayed cerebral vasospasm (% change in basilar artery diameter),"[1]; blood i.c. + compound i.v. continuously for 7 days, angiography days 1 to 7",significant amelioration of delayed cerebral vasospasm
same,diameter of cerebral blood vessels in the absence of hemorrhage,[1]; saline i.c. + compound i.v. continuously for 7 days,not affected
same,HO-1 mRNA expression level (HO-1/HO-2 ratio),HO-1 mRNA,significant increase in HO-1 mRNA expression level
same,HO-1 protein induction,HO-1 protein,causes or enhances HO-1 protein induction
